pIC50: −log10 of the molar value.
How the values were obtained:
human recombinant-PDE5 = human recombinant-PDE5 (Homo sapiens, UniProt O76074); assay: Inhibitory effect on cGMP-PDE (PDE5 IC50, one-step assay); assay type: biochemical; details: in vitro, 0.15 μM 8-[H3]-cGMP, 30 min incubation
Description: The compounds of structural formula (I) were tested for an ability to inhibit PDE5. The ability of a compound to inhibit PDE5 activity is related to the IC50 value for the compound, i.e., the concentration of inhibitor required for 50% inhibition of enzyme activity. The IC50 value for compounds of structural formula (I) were determined using recombinant human PDE5.
cGMP-PDE activity of compounds of the present invention was measured using a one-step assay adapted from Wells et al., Biochim. Biophys. Acta, 384, 430 (1975). The reaction medium contained 50 mM Tris-HCl, pH 7.5, 5 mM magnesium acetate, 250 μg/ml 5′-Nucleotidase, 1 mM EGTA, and 0.15 μM 8-[H^3]-cGMP. Unless otherwise indicated, the enzyme used was a human recombinant-PDE5 (ICOS Corp., Bothell, Wash.).
Compounds of the invention were dissolved in DMSO finally present at 2% in the assay.

Structure (SMILES) | melting point [°C] | pIC50 (human recombinant-PDE5)
CN1CC(=O)N2[C@H](c3ccc4c(c3)OCO4)c3[nH]c4ccc(O)cc4c3C[C@@H]2C1=O (racemic) [Example 1, (+/−, cis)-6-Benzo[1,3]dioxol-5-yl-10-hydroxy-2-methyl-2,3,6,7,12,12a-hexahydropyrazino[1′,2′:1,6)pyrido[3,4-b]indole-1,4-dione] | 322 to 328 | 7.32
COC(=O)c1ccc2c3c([nH]c2c1)[C@@H](c1ccc2c(c1)OCO2)N1C(=O)CN(C)C(=O)[C@H]1C3 (racemic) [Example 5, (+−, cis)-6-Benzo[1,3]dioxol-5-yl-2-methyl-1,4-dioxo-1,2,3,6,7,12,12a-octahydropyrazino[1′,2′:1,6]pyrido[3,4-b]indole-9-carboxylic acid methyl ester] | 294 to 295 | 6.54
CN1CC(=O)N2[C@H](c3ccc4c(c3)OCO4)c3[nH]c4cc(C(=O)O)ccc4c3C[C@H]2C1=O (racemic) [Example 6, (+−,trans)-6-Benzo[1,3]dioxol-5-yl-2-methyl-1,4-dioxo-1,2,3,4,6,7,12,12a-octahydropyrazino[1′,2′:1,6]pyrido[3,4-b]indole-9-carobxylic acid] | 246 to 252 | 6.82
CN1CC(=O)N2[C@H](c3ccc4c(c3)OCO4)c3[nH]c4c(OCc5ccccc5)cccc4c3C[C@@H]2C1=O (racemic) [Example 8, (+−, cis)-6-Benzo[1,3]dioxol-5-yl-8-benzyloxy-2-methyl-2,3,6,7,12,12a-hexahydropyrazino[1′2′:1,6]pyrido[3,4-b]indole-1,4-dione] | 150 to 161 | 7.43
COc1ccc2[nH]c3c(c2c1)C[C@@H]1C(=O)N(C)CC(=O)N1[C@@H]3c1ccc2c(c1)OCO2 (racemic) [Example 2, (trans)-6-(1,3-Benzodioxol-5-yl)-10-methoxy-2-methyl-2,3,6,7,12,12a-hexahydropyrazino[1′,2′:1,6]pyrido[3,4-b]indole-1,4-dione] | 259 to 261 | 6.40
CN1CC(=O)N2[C@H](c3ccc4c(c3)OCO4)c3[nH]c4cc(C#N)ccc4c3C[C@@H]2C1=O (racemic) [Example 7, (+−, cis)-6-Benzo[1,3]dioxol-5-yl-2-methyl-1,4-dioxo-1,2,3,4,6,7,12,12a-octahydropyrazino[1′,2′:1,6]pyrido[3,4-b]indole-9-carbonitrile] | 329 to 331 | 8.15
CN1CC(=O)N2[C@H](c3ccc4c(c3)OCO4)c3[nH]c4cc(-c5ccccc5)ccc4c3C[C@@H]2C1=O (racemic) [Example 4, (+−, cis)-6-Benzo[1,3]dioxol-5-yl-2-methyl-9-phenyl-2,3,6,7,12,12a-hexahydropyrazino[1′,2′:1,6]pyrido[3,4-b]indole-1,4-dione] | 198 to 208 | 8.22
COc1ccc2c3c([nH]c2c1)[C@@H](c1ccc2c(c1)OCO2)N1C(=O)CN(C)C(=O)[C@H]1C3 [Example 3, (6R,12aR)-6-Benzo[1,3]dioxol-5-yl-9-methoxy-2-methyl-2,3,6,7,12,12a-hexahydropyrazino-[1′,2′:1,6]pyrido[3,4-b]indole-1,4-dione] | 288 to 293 | 8.92
